Data reported in patent US20080318861A1, “Mucosal Delivery of Stabilized Formulations of Exendin” (NASTECH PHARMACEUTICAL COMPANY INC., priority 2005, published 2008).

How the values were obtained:
[1] = test system: normal, human-derived tracheal/bronchial epithelial cells (EpiAirway Tissue Model); assay: MTT cell viability assay; assay type: cell-based; settings: for toxicity / cell viability in excipient screening (in words): cell viability as measured by LDH and MTT, exenatide formulation containing the named excipient
Text: The extraction plate was covered and scaled to reduce evaporation of extractant.

[2] = test system: normal, human-derived tracheal/bronchial epithelial cells (EpiAirway Tissue Model); assay: Transepithelial electrical resistance (TER) in the in vitro nasal epithelial model; assay type: cell-based; settings: 60 min exposure
Text: A cell line from MatTek Corp. (Ashland, Mass.) was used as the source of normal, human-derived tracheal/bronchial epithelial cells (EpiAirway™ Tissue Model). […] The cells were provided as inserts grown to confluence on Millipore Milicell-CM filters comprised of transparent hydrophilic Teflon (PTFE). […] TER measurements were accomplished using the Endohm-12 Tissue Resistance Measurement Chamber connected to the EVOM Epithelial Voltohmmeter (World Precision Instruments, Sarasota, Fla.) with the electrode leads. The electrodes and a tissue culture blank insert were equilibrated for at least twenty (20) minutes in phosphate buffered solution with the power off prior to checking calibration. The background resistance was measured with 1.5 mL media in the Endohm tissue chamber and 300 μL media in a blank Millicell-CM insert. […] The background resistance of the blank insert was 5-12 ohms.
TER was measured before and after the sixty (60) minute incubation. […] After the 60 minute incubation with test samples, 200 μL of fresh media was gently added to the apical surface of each test sample insert and final TER was measured for each insert. […] Resistance is expressed as follows: (resistance measured−blank)×0.6 cm^2.

[3] = test system: normal, human-derived tracheal/bronchial epithelial cells (EpiAirway Tissue Model); assay: Lactate dehydrogenase (LDH) cytotoxicity assay; assay type: cell-based
Procedure: The amount of cell death was assayed by measuring the loss of lactate dehydrogenase (LDH) from the cells using a CytoTox 96 Cytoxicity Assay Kit (Promega Corp., Madison, Wis.). Fresh, cell-free culture medium was used as a blank. 50 μl harvested media (stored at 4° C.) was loaded in a 96-well plate. Substrate Solution (50 μl) was added to each well and the plates were incubated for thirty (30) minutes at ambient temperature in the dark. Following incubation, 50 μl of Stop Solution was added to each well and the reaction was monitored at A490 using an optical density plate reader. Media alone applied to the apical side served as a negative control while triton X served as the positive control for the LDH assay.

[4] = test system: epithelial tissue barrier (EpiAirway Tissue Model); assay: In vitro permeation of exenatide across the cellular barrier (EIA analysis); settings: for exenatide permeation (in words): compared with AKL-225-126-2 or control without enhancers
Text: Initial studies focused on optimizing the concentrations of Me-β-CD, DDPC, EDTA, and gelatin to enhance exenatide permeation across an epithelial tissue layer.
A second round of studies, series B, systematically screened several excipients for their potential to enhance exenatide permeation to a greater degree than the Me-β-CD, DDPC, EDTA, and gelatin combinations. […] Initially, each excipient (except for those classified as “generally regarded as safe” (GRAS) by the FDA, recombinant gelatins, and PN159), was tested at two concentrations or in combination with Me-β-CD, DDPC, or EDTA. As with series A formulations, each formulation was evaluated for exenatide permeation, ability to reduce TER while not adversely affecting cell viability, and formulation physical stability.

[5] = Physical stability by clarity (absorbance at 630 nm) on storage at 5° C.; settings: stored at 5° C. (refrigerated) for at least two weeks
Procedure: In vitro testing of exenatide formulations included a preservatives screen. Physical stability after storage at 5° C. was measured for all formulations tested in vitro. Exenatide formulations were placed in 1 cc glass vials and closed with trifoil lined caps and stored at 5° C. for at least two weeks. Physical stability was monitored by measuring clarity. Clarity of a formulation was determined by measuring absorbance at 630 nm, using the μQuant optical density plate reader for each formulation at days 0, 7, and 14. A 200 μL volume from each vial was placed in a 96-well plate and read against a background of water.
Varying concentrations of sodium benzoate (NaBz) and benzalkonium chloride (BAK), were screened for their effect on physical stability of the three formulations used in in vivo studies. Sodium benzoate was added at 1.0, 2.5, and 5.0 mg/mL, while BAK was tested at 0.2, 1.0, 2.0, and 4.0 mg/mL. To prepare the samples, varying amounts of stock solutions of the two preservatives were added to the three prepared formulations dosed in the PK study. […] The resulting formulations were stored at 5° C. for 5.5 weeks. Physical stability was monitored by measuring the absorbance of the solution at 630 nm.
Sodium benzoate was added at concentrations of 1.0 to 5.0 mg/mL, while BAK was tested at 0.05, 0.075, and 0.1 mg/mL. To prepare the samples, varying amounts of stock solutions of the two preservatives were added to the formulations prepared in the PK study and the pH was adjusted to 4.5 with HCl as necessary. The resulting formulations were stored at 5° C. for 4 weeks. Physical stability was monitored by measuring the absorbance of the solution at […].
The second formulation lacked any buffer to test the effect of the buffer itself on physical stability.

Row | Molecule | toxicity / cell viability in excipient screening (in words) [1] | exenatide permeation (in words) [4] | physical stability (clarity) [5] | other results
1 | CCCCCCCCO[C@@H]1O[C@H](CO)[C@H](O)[C@H](O)[C@H]1O [galactopyranoside, n-Octyl-β-D-galactopyranoside] | toxic at 10 mg/mL | – | – | –
2 | triton X | – | – | – | TER reduction (in words) [2]: lowest possible TER; cytotoxicity as measured by % LDH (in words) [3]: significant toxicity; cytotoxicity as measured by % MTT (in words) [1]: significant toxicity
3 | O=C(O)CN(CCN(CC(=O)O)CC(=O)O)CC(=O)O [EDTA] | cell viability began to decrease | – | – | –
4 | CC(O)CO (stereo not shown) [propylene glycol] | – | failed to enhance permeation at all | – | –
5 | CCCCCCCCC(=O)OC[C@H](COP(=O)([O-])OCC[N+](C)(C)C)OC(=O)CCCCCCCC [dinonanoyl glycero phosphatidylcholine] | – | – | becoming turbid in less than two weeks at refrigerated conditions | –
6 | CCCCCCCCCCCCCCCC(=O)OC(CC(=O)[O-])C[N+](C)(C)C (racemic) [Palmitoyl-DL-carnitine, palmitoyl-DL-carnitine] | toxic at high concentrations | – | physically instable without Me-β-CD | –
7 | CCCCCCCC/C=C\CCCCCCCC(=O)O [oleic acid] | lowered cell viability | – | – | –
8 | OC[C@H]1O[C@@H]2O[C@H]3[C@H](O)[C@@H](O)[C@@H](O[C@H]4[C@H](O)[C@@H](O)[C@@H](O[C@H]5[C@H](O)[C@@H](O)[C@@H](O[C@H]6[C@H](O)[C@@H](O)[C@@H](O[C@H]7[C@H](O)[C@@H](O)[C@@H](O[C@H]8[C@H](O)[C@@H](O)[C@@H](O[C@H]1[C@H](O)[C@H]2O)O[C@@H]8CO)O[C@@H]7CO)O[C@@H]6CO)O[C@@H]5CO)O[C@@H]4CO)O[C@@H]3CO [β-cyclodextrin] | – | – | became turbid at refrigerated conditions | –
9 | Tween-80 | – | failed to enhance exenatide permeation to the same extent as formulation AKL-225-126-2 | – | –
10 | CCO [ethanol] | – | did not enhance exenatide permeation | – | –
11 | CCCCCCCC(=O)[O-].[Na+] [sodium caprylate] | toxic at 20 mM with Me-β-CD and EDTA | failed to enhance exenatide permeation to any extent alone or with permeation enhancers | physical instability in the absence of Me-β-CD | –
12 | dimethyl-β-cyclodextrin [DMe-β-CD] | more toxic to the cells than Me-β-CD | – | – | fold increase in exenatide permeation over AKL-225-126-2 ([4]; full dose volume (100 µL)): 1.5 fold
13 | hydroxypropyl-β-cyclodextrin [H-β-CD] | – | did not increase permeation significantly | – | –
14 | CCCCCCCCCC(=O)[O-].[Na+] [sodium caprate] | low cell viability at 50 mM alone | – | physical instability in the absence of Me-β-CD | –
15 | C[C@H](CCC(=O)NCC(=O)[O-])[C@H]1CC[C@H]2[C@@H]3[C@H](O)C[C@@H]4C[C@H](O)CC[C@]4(C)[C@H]3C[C@H](O)[C@]12C.[Na+] [Sodium glycocholate, sodium glycocholate] | – | – | physically instable at high concentrations | –
